Source: ChEMBL document CHEMBL1201862, “PubChem BioAssay data set” (2004)
Active and inactive are the calls of the source.

Assays:
[1] = system: HeLa; assay: ATP-based viability loss in HeLa cells – cell-based, CellTiter-Glo luminescence, cherry-pick samples, cytotoxicity control for MITF activator project, dose response (AID 540259); format: functional; conditions: Homo sapiens
[2] = biological target: Keap1/Nrf2 (Homo sapiens, UniProt Q14145); assay: disruptors of Keap1 binding to Nrf2 peptide – biochemical, fluorescence polarization, cherry-picked samples, dose response (AID 588683)
Keap1/Nrf2, sequence (Q16236 whole entry): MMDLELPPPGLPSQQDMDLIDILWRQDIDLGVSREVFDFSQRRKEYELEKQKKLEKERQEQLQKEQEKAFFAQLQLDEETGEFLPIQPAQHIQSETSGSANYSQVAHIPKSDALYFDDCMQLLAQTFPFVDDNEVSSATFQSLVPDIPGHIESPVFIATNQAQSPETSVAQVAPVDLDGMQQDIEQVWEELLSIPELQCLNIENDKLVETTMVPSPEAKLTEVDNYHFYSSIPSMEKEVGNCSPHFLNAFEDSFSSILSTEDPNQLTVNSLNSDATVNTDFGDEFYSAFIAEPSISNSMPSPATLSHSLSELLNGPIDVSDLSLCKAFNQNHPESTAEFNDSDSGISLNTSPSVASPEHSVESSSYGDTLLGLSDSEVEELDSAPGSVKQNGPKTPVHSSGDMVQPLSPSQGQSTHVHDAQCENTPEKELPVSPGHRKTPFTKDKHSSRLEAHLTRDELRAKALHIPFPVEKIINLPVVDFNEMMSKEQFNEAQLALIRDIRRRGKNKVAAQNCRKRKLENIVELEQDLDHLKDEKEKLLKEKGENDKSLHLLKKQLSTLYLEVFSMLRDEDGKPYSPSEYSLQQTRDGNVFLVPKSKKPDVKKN
Keap1/Nrf2, sequence (Q14145 whole entry): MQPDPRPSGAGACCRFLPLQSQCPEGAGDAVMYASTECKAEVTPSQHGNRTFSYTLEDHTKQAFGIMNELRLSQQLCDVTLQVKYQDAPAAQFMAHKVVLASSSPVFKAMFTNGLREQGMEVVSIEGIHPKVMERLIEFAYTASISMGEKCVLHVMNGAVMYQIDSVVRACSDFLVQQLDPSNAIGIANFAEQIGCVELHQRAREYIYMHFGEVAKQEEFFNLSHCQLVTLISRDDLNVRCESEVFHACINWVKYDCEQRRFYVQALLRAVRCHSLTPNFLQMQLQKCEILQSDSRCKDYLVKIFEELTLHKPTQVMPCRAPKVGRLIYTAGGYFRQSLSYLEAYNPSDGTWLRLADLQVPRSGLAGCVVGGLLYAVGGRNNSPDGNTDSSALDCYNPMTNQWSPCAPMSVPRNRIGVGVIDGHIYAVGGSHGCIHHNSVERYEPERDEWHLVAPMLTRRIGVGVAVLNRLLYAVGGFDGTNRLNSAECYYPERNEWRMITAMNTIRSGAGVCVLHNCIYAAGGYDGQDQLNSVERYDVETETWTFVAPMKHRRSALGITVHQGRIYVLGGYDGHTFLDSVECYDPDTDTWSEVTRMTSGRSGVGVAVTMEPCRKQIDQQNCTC

[3] = biological target: 26S proteasome non-ATPase regulatory subunit 14 (Homo sapiens, UniProt O00487); assay: inhibition of proteasome subunit RPN11 – biochemical, fluorescence polarization, uHTS hits, confirmation (AID 602368); format: functional
26S proteasome non-ATPase regulatory subunit 14, sequence (O00487 whole entry): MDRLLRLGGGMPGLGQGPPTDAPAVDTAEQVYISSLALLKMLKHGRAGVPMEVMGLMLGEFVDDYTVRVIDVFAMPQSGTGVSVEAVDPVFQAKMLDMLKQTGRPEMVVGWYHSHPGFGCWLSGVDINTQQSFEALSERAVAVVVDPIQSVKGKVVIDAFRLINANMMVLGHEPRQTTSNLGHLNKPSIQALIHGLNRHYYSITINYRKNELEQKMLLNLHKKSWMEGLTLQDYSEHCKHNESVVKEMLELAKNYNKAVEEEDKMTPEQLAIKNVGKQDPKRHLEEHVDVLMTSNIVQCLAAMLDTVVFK

[4] = biological target: 72 kDa type IV collagenase (Homo sapiens, UniProt P08253); assay: Dose Response validation of uHTS RPN11 inhibitor hits using a MMP-2 Fluorescence assay.; format: functional
72 kDa type IV collagenase, sequence (P08253 whole entry): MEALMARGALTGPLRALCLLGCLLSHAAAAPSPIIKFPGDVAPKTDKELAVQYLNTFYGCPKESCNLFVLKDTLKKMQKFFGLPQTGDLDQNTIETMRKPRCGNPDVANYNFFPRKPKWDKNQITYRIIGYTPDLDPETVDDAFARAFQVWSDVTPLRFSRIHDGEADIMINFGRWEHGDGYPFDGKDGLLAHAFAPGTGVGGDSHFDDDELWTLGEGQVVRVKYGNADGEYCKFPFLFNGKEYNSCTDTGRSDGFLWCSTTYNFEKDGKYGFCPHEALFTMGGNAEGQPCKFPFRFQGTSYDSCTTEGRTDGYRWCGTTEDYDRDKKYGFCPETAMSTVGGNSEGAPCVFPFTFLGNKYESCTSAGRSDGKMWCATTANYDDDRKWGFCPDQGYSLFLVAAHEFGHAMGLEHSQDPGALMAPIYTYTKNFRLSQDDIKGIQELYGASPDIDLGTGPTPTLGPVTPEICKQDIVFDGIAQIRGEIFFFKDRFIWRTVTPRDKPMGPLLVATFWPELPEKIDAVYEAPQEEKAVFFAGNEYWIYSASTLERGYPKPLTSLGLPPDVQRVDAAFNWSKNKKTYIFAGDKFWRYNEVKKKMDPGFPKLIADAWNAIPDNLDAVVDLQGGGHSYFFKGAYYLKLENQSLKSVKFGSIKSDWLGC

[5] = biological target: Prothrombin (Bos taurus, UniProt P00735); assay: thrombin protease inhibitors – biochemical, fluorescence polarization, uHTS hits, dose response (AID 602369); format: functional
[6] = biological target: T1, Histone-lysine N-methyltransferase NSD2 (Homo sapiens, UniProt O96028); format: biochemical
T1 sequence (O96028 whole entry): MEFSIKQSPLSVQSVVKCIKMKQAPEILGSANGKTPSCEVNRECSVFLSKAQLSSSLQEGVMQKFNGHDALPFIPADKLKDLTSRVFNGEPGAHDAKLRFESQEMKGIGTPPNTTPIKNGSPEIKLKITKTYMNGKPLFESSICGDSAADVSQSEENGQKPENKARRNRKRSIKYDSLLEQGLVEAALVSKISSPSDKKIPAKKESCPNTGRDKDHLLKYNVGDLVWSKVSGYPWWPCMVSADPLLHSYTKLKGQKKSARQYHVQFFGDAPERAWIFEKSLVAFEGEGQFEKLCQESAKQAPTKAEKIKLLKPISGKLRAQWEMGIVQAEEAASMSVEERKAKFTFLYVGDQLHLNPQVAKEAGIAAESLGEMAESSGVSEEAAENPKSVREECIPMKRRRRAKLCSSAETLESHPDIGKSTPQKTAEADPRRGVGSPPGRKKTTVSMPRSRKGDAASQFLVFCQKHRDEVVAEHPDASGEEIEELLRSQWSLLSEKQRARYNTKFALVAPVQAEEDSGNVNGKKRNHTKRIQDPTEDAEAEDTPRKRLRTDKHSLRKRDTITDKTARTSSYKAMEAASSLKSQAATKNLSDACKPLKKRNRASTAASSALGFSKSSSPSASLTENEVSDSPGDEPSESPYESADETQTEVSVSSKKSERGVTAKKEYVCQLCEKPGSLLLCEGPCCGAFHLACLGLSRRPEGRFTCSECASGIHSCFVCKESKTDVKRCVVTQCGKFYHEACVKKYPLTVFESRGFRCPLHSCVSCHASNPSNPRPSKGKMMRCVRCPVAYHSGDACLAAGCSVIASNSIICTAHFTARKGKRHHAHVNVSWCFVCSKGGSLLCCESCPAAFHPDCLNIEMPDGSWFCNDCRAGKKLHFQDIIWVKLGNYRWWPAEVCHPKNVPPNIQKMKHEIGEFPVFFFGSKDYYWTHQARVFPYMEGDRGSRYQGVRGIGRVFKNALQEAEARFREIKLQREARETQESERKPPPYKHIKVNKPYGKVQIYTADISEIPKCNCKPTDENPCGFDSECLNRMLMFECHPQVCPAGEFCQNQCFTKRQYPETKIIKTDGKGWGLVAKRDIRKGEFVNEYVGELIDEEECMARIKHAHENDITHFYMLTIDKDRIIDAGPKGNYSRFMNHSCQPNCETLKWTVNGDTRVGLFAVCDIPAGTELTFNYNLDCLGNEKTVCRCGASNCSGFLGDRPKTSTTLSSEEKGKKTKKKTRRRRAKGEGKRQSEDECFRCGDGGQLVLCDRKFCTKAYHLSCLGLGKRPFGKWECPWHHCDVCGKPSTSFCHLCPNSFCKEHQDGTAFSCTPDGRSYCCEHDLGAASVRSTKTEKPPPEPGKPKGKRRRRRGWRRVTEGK

AC50 [2]	IC50 [3]	IC50 [4]	IC50 [5]	AC50 [6]	Structure (SMILES)	AC50 [1]
–	–	–	–	–	CC1(C)CC(=O)c2c(O)cc(OCc3ccc(Br)cc3)cc2O1	70.4 µM (active)
–	–	–	–	–	CC(C)(C)C(=O)Nc1nc2cc3c(cc2s1)OCO3	51.9 µM (active)
> 52 µM (inactive)	43.6 µM (active)	0.302 µM (active)	87.5 µM (active)	7.93 µM (active)	C/C(C/C(C)=C1/SC(=S)NC1=O)=C1\SC(=S)NC1=O	–
